# According to US6642216B2, “Isoprenoid pathway inhibitors for stimulating bone growth” (ZymoGenetics Corporation, priority 1996, dated 2003):
# Assays:
# chickens = settings: Cui et al. 1996; cited from earlier work
# neonatal mouse calvaria = assay: Neonatal mouse calvaria assay (in vitro bone formation); format: cell-based; design: Osteoblast Number, % increase over vehicle control / New Bone Area, % increase over vehicle control: concentration or dose not given beside the values
# Description: Briefly, four days after birth, the front and parietal bones of ICR Swiss white mouse pups are removed by microdissection and split along the sagittal suture.
# Three μm sections of the calvaria are prepared. Representative sections are selected for histomorphometric assessment of bone formation or bone resorption. Bone changes are measured on sections cut 200 μm apart. Osteoblasts and osteoclasts are identified by their distinctive morphology.
# Selected compounds and appropriate controls were assayed in vitro (ex vivo) for bone formation activity (described above in “Neonatal Mouse Calvaria Assay (in vitro)”). Histomorphometrical assessments of ex vivo calvaria were carried out using an OsteoMetrics bone morphometry measurement program, according to the manufacturer's instructions. Measurements were determined using either a 10- or 20-fold objective with a standard point counting eyepiece graticule.
# New bone formation was determined (using a 10× objective) by measuring the new bone area formed in one field in 3 representative sections of each bone (4 bones per group). Each measurement was carried out ½ field distance from the end of the suture. Both total bone and old bone area were measured. Data were expressed as new bone area in mm^2.
# Osteoblast numbers were determined by point counting. The number of osteoblast cells lining the bone surface on both sides of the bone were counted in one field using a 20× objective. Data were expressed as osteoblast numbers/mm of bone surface.
# The results were calculated as new bone area in mm^2×10^−3, as above.
# [1] = system: ICR Swiss white mice calvaria; assay: In vivo murine calvarial bone growth assay; design: species or system mouse
# Description: Male ICR Swiss white mice, aged 4-6 weeks and weighing 13-26 gm, are employed, using 4-5 mice per group. The calvarial bone growth assay is performed as described in PCT application WO 95/24211, incorporated by reference. Briefly, the test compound or appropriate control vehicle is injected into the subcutaneous tissue over the right calvaria of normal mice. Typically, the control vehicle is the vehicle in which the compound was solubilized, and is PBS containing 5% DMSO or is PBS containing Tween (2 μl/10 ml). The animals are sacrificed on day 14 and bone growth measured by histomorphometry. Bone samples for quantitation are cleaned from adjacent tissues and fixed in 10% buffered formalin for 24-48 hours, decalcified in 14% EDTA for 1-3 weeks, processed through graded alcohols; and embedded in paraffin wax. Three to five μm sections of the calvaria are prepared, and representative sections are selected for histomorphometric assessment of the effects on bone formation and bone resorption. Sections are measured by using a camera lucida attachment to trace directly the microscopic image onto a digitizing plate. Bone changes are measured on sections cut 200 μm apart, over 4 adjacent 1×1 mm fields on both the injected and noninjected sides of the calvaria. New bone is identified by its characteristic woven structure, and osteoclasts and osteoblasts are identified by their distinctive morphology. Histomorphometry software (OsteoMeasure, Osteometrix, Inc., Atlanta) is used to process digitizer input to determine cell counts and measure areas or perimeters.
# The results are reported as a measurement of total bone area (and % increase in area over vehicle control), as shown below.
# rabbits = settings: Wang et al. 1995; cited from earlier work
# BMP-2 promoter = assay: ABA assay: BMP-2 promoter-luciferase reporter in 2T3-BMP-2-LUC osteoblast cells; format: cell-based, mouse
# [2] = Experiment 3, 8.88178E μg/ml (0.002193 μM lovastatin, 0.002087 μM fluvastatin)
compound,measurement,setting,value
"CC[C@H](C)C(=O)O[C@H]1C[C@@H](C)C=C2C=C[C@H](C)[C@H](CC[C@@H]3C[C@@H](O)CC(=O)O3)[C@H]21 [Lovastatin, lovastatin]",bone loss in the femoral head as a result of dexamethasone treatment,chickens,improved
same,"inducing bone formation, compared with BMP-2 and bFGF",neonatal mouse calvaria,"as good as, or better than"
same,New Bone Area,"neonatal mouse calvaria; Experiment 3, 3 days",8.2 mm^2 × 10^−3
same,"New Bone Area, % increase over vehicle control","neonatal mouse calvaria; Experiment 3, 3 days",182%
same,Osteoblast Number,"neonatal mouse calvaria; Experiment 3, 3 days",128 Obs/field
same,"Osteoblast Number, % increase over vehicle control","neonatal mouse calvaria; Experiment 3, 3 days",152%
same,% increase in total bone area over vehicle control,[1]; 0.1 mg/kg/day,0%
same,Total Bone Area,[1]; 0.1 mg/kg/day,162 μm^2
same,% increase in total bone area over vehicle control,[1]; 1 mg/kg/day,41%
same,Total Bone Area,[1]; 1 mg/kg/day,237 μm^2
same,% increase in total bone area over vehicle control,[1]; 5 mg/kg/day,40%
same,Total Bone Area,[1]; 5 mg/kg/day,235 μm^2
same,% increase in total bone area over vehicle control,[1]; 10 mg/kg/day,42%
same,Total Bone Area,[1]; 10 mg/kg/day,239 μm^2
same,bone stimulatory effect compared with 12.5 μg/kg/day bFGF,[1]; 10 mg/kg/day,comparable
same,effect on total bone area,[1]; varying doses,dose-dependent increase in total bone area
same,effect on bone formation in the absence of steroid treatment,rabbits,no effect on bone formation
same,inhibition of the bone resorption resulting from steroid administration,rabbits,able to inhibit the bone resorption
same,dose-dependent stimulatory effect in the ABA assay,BMP-2 promoter,dose-dependent stimulatory effect
same,% 59-0008 Response,"BMP-2 promoter; Experiment 1, 0.195312 μg/ml",22.840%
same,Fold increase over negative control,"BMP-2 promoter; Experiment 1, 0.195312 μg/ml",2.011 fold
same,% 59-0008 Response,"BMP-2 promoter; Experiment 1, 0.390625 μg/ml",27.830%
same,Fold increase over negative control,"BMP-2 promoter; Experiment 1, 0.390625 μg/ml",2.232 fold
same,% 59-0008 Response,"BMP-2 promoter; Experiment 1, 0.78125 μg/ml",35.220%
same,Fold increase over negative control,"BMP-2 promoter; Experiment 1, 0.78125 μg/ml",2.559 fold
same,% 59-0008 Response,"BMP-2 promoter; Experiment 1, 1.5625 μg/ml",67.080%
same,Fold increase over negative control,"BMP-2 promoter; Experiment 1, 1.5625 μg/ml",3.970 fold
same,% 59-0008 Response,"BMP-2 promoter; Experiment 1, 3.125 μg/ml",111.730%
same,Fold increase over negative control,"BMP-2 promoter; Experiment 1, 3.125 μg/ml",5.947 fold
same,% 59-0008 Response,"BMP-2 promoter; Experiment 1, 6.25 μg/ml",126.230%
same,Fold increase over negative control,"BMP-2 promoter; Experiment 1, 6.25 μg/ml",6.589 fold
same,% 59-0008 Response,"BMP-2 promoter; Experiment 1, 12.5 μg/ml",153.790%
same,Fold increase over negative control,"BMP-2 promoter; Experiment 1, 12.5 μg/ml",7.809 fold
same,% 59-0008 Response,"BMP-2 promoter; Experiment 1, 25 μg/ml",144.730%
same,Fold increase over negative control,"BMP-2 promoter; Experiment 1, 25 μg/ml",7.408 fold
same,% 59-0008 Response,"BMP-2 promoter; Experiment 1, 50 μg/ml",−22.510%
same,Fold increase over negative control,"BMP-2 promoter; Experiment 1, 50 μg/ml",0.003 fold
same,% 59-0008 Response,"BMP-2 promoter; Experiment 1, 200 μg/ml",−22.650%
same,Fold increase over negative control,"BMP-2 promoter; Experiment 1, 200 μg/ml",−0.003 fold
same,% 59-0008 Response,"BMP-2 promoter; Experiment 3, 0.002842 μg/ml",1.050%
same,Fold increase over negative control,"BMP-2 promoter; Experiment 3, 0.002842 μg/ml",1.032 fold
same,% 59-0008 Response,"BMP-2 promoter; Experiment 3, 0.009094 μg/ml",2.720%
same,Fold increase over negative control,"BMP-2 promoter; Experiment 3, 0.009094 μg/ml",1.083 fold
same,% 59-0008 Response,"BMP-2 promoter; Experiment 3, 0.029103 μg/ml",1.550%
same,Fold increase over negative control,"BMP-2 promoter; Experiment 3, 0.029103 μg/ml",1.048 fold
same,% 59-0008 Response,"BMP-2 promoter; Experiment 3, 0.093132 μg/ml",3.210%
same,Fold increase over negative control,"BMP-2 promoter; Experiment 3, 0.093132 μg/ml",1.099 fold
same,% 59-0008 Response,"BMP-2 promoter; Experiment 3, 0.298023 μg/ml",10.860%
same,Fold increase over negative control,"BMP-2 promoter; Experiment 3, 0.298023 μg/ml",1.333 fold
same,% 59-0008 Response,"BMP-2 promoter; Experiment 3, 0.953674 μg/ml",35.300%
same,Fold increase over negative control,"BMP-2 promoter; Experiment 3, 0.953674 μg/ml",2.083 fold
same,% 59-0008 Response,"BMP-2 promoter; Experiment 3, 3.051757 μg/ml",103.260%
same,Fold increase over negative control,"BMP-2 promoter; Experiment 3, 3.051757 μg/ml",4.169 fold
same,% 59-0008 Response,"BMP-2 promoter; Experiment 3, 9.765625 μg/ml",148.030%
same,Fold increase over negative control,"BMP-2 promoter; Experiment 3, 9.765625 μg/ml",5.543 fold
same,% 59-0008 Response,"BMP-2 promoter; Experiment 3, 31.25 μg/ml",166.770%
same,Fold increase over negative control,"BMP-2 promoter; Experiment 3, 31.25 μg/ml",6.118 fold
same,% 59-0008 Response,BMP-2 promoter; [2],0.620%
same,Fold increase over negative control,BMP-2 promoter; [2],1.019 fold
